The results in this text go back to US9073858B2, “Methods of targeted drug development” (priority 2010, dated 2015).

Like-named read-outs stand apart in the source and are kept apart here.

Test [1] has as its system epithelial carcinoma A431 cell line. Briefly: MTT Cell Proliferation Assay, A431 cell line. The test is classed as cell-based. As to conditions: for MTT (10 Point follow-up) ratio / MTT-72 h A431/MDBK (ratio): value in brackets; for MTT (10 Point follow-up) ratio: numerically MDBK over A431; for IC50: Homo sapiens; for MTT-72 h A431/MDBK (ratio): numerically MDBK value over A431 value. The essentials: (§1)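 Cells plated overnight, then exposed 3 days at 37 °C, 5% CO2 to compound in growth medium with 0.5% FBS and 0.5% DMSO final (0.5% DMSO as control).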

In another test the target is T1, EGFR (Homo sapiens, UniProt P00533).
T1 construct: endogenous in cells; host or cells: A431 cells (ATCC CRL-1555)
T1 sequence (P00533 25-1210): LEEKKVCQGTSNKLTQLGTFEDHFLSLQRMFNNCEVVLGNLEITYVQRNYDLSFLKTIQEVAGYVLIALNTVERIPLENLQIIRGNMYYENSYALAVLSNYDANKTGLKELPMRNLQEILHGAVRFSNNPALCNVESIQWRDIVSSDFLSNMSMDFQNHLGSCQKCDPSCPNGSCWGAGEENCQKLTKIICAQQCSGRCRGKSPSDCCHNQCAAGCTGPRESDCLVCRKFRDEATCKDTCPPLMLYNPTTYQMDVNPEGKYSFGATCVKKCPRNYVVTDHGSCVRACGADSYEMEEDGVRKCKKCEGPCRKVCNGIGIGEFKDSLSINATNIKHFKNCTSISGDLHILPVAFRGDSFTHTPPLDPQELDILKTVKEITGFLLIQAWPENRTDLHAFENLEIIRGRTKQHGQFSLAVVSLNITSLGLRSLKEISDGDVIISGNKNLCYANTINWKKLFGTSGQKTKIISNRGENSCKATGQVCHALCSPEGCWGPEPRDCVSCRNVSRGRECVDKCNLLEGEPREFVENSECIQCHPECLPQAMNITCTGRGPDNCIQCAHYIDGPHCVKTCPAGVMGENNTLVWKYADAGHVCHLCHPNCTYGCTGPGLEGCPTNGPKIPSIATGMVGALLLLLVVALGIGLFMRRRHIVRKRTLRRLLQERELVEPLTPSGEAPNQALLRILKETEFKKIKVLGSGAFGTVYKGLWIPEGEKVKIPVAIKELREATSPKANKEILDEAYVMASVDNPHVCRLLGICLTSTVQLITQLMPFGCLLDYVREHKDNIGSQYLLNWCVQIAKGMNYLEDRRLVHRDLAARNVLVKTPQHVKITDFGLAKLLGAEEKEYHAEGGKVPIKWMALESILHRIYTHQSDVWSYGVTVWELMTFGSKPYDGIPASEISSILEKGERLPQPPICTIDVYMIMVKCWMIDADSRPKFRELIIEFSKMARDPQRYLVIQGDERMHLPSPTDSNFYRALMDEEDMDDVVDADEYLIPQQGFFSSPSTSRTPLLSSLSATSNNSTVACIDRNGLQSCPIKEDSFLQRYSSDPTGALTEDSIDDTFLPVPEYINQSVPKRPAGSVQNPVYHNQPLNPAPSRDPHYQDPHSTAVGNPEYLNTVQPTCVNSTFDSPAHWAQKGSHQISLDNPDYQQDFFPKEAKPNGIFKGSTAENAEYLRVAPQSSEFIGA
The experiment in a line: EGFR in-cell Western (ICW) screening protocol. The test is classed as cell-based. On the set-up: unit not given here. To be noted: for ICW Screen: initial screen. The gist of the method:
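Serum-starved cells treated with compound 4 h at 37 °C, then stimulated with EGF (20 or 0 ng/ml solution added) in its continued presence. In-cell Western on fixed cells: phospho-EGFR (800 channel) normalised to total EGFR (700 channel), % inhibition calculated against EGF-stimulated and unstimulated no-compound wells.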

Another test has as its system MDBK line. The experiment in a line: MTT Cell Proliferation Assay, MDBK line. The test is classed as cell-based, bovine. As to conditions: Bos taurus, MDBK. The gist of the method:
as §1

Where [2] appears, read: A-431, 10 point follow-up, first value of pair, read-out: MTT (10 Point follow-up) A431.
[3] abbreviates: 10 point follow-up, second value of pair, read-out: MTT (10 Point follow-up) MDBK.
Where [4] appears, read: A-431, 72 h, 72 h, first value of A431/MDBK pair, read-out: MTT-72 h A431.
Setting [5] is: 72 h, second value of A431/MDBK pair, read-out: MTT-72 h MDBK.

In the case of `Cc1ccnc(NC(c2ccc(F)cc2)c2ccc3cccnc3c2O)c1` (stereo not shown) [compound 10522], in test [1], the “MTT (10 Point follow-up) ratio” value is recorded as 1.14. In addition, the IC50 in test [1] (setting [2]) is 1.65 µM; with MDBK line (setting [3]) it was 1.89 µM. Also, the “ICW Screen” value against EGFR came out at 26.6.

Consider `COc1ccc(C(Nc2ccccn2)c2ccc3cccnc3c2O)cc1` (stereo not shown) [compound 10524], for which the “MTT-72 h A431/MDBK (ratio)” value in test [1] (72 h) amounted to 0.95. The IC50 came to 5.33 µM in test [1] (setting [4]) and 5.09 µM with MDBK line (setting [5]). In addition, on EGFR, the “ICW Screen” value was found to be 38.96. Further, the “ICW Re-Test” value at EGFR is 30.44.

For `Oc1c(C(c2ccccn2)N2CCN(Cc3ccccc3)CC2)ccc2cccnc12` (stereo not shown) [compound 10534], in test [1] (72 h), the “MTT-72 h A431/MDBK (ratio)” value is reported as 0.85. The IC50 in test [1] (setting [4]) came out at 10.8 µM; with MDBK line (setting [5]) it was 9.18 µM. For the same molecule, the “ICW Screen” value at EGFR is listed as 28.31.

On to `CCN1CCN(C(c2ccc(C(F)(F)F)cc2)c2ccc3cccnc3c2O)CC1` (stereo not shown) [compound 10535], for which the “MTT (10 Point follow-up) ratio” value in test [1] came to 1.43. The “MTT-72 h A431/MDBK (ratio)” value in test [1] (72 h) turned out to be 1.45. For the same molecule, the IC50 is 2.04 µM in test [1] (setting [2]), 2.72 µM in test [1] (setting [4]), 2.91 µM in the test with MDBK line (setting [3]) and 3.95 µM in the test with MDBK line (setting [5]). Moreover, the “ICW Screen” value on EGFR was 44.02. Besides, the “ICW Re-Test” value against EGFR was 52.63.

With `OCCN1CCN(C(c2cccs2)c2ccc3cccnc3c2O)CC1` (stereo not shown) [compound 10546], the “MTT-72 h A431/MDBK (ratio)” value in test [1] (72 h) is 0.84. The values for the IC50 (in test [1] (setting [4]); in the test on MDBK line (setting [5])) were 7.03 µM and 5.92 µM, respectively. In addition, the “ICW Screen” value on EGFR came out at 25.23.

In the case of `CCN1CCN(C(c2cccnc2)c2cc(Cl)c3cccnc3c2O)CC1` (stereo not shown) [compound 10547], in test [1] (72 h), the “MTT-72 h A431/MDBK (ratio)” value is recorded as 0.52. For the same molecule, the IC50 amounted to 11.5 µM in test [1] (setting [4]) and 5.96 µM in the test on MDBK line (setting [5]). Further, the “ICW Screen” value at EGFR is 26.4.

On to `CN1CCN(C(c2ccccn2)c2ccc3cccnc3c2O)CC1` (stereo not shown) [compound 10548], for which the “MTT-72 h A431/MDBK (ratio)” value in test [1] (72 h) was found to be 0.89. Further, the IC50 in test [1] (setting [4]) came to 9.05 µM; with MDBK line (setting [5]), 8.07 µM. The “ICW Screen” value against EGFR is on record as 31.03.

Regarding `CCN1CCN(C(c2cccnc2)c2ccc3cccnc3c2O)CC1` (stereo not shown) [compound 10550], the “MTT-72 h A431/MDBK (ratio)” value in test [1] (72 h) is 0.79. The IC50 is 9.59 µM in test [1] (setting [4]) and 7.6 µM in the test with MDBK line (setting [5]). Also, on EGFR, the “ICW Screen” value was found to be 31.84.

As for `CON1CCN(C(c2cccnc2)c2ccc3cccnc3c2O)CC1` (stereo not shown) [compound 10551], in test [1] (72 h), the “MTT-72 h A431/MDBK (ratio)” value amounted to 0.57. In addition, the IC50 in test [1] (setting [4]) came to 20.1 µM; with MDBK line (setting [5]), 11.4 µM. For the same molecule, the “ICW Screen” value against EGFR came to 29.14.

For `Oc1c(C(Nc2nccs2)c2cccs2)ccc2cccnc12` (stereo not shown) [compound 10602], in test [1], the “MTT (10 Point follow-up) ratio” value was 0.71. For the same molecule, in test [1] (72 h), the “MTT-72 h A431/MDBK (ratio)” value turned out to be 0.65. Moreover, the IC50 in test [1] (setting [2]) worked out at 3.3 µM; in test [1] (setting [4]) it was 3.56 µM; with MDBK line (setting [3]) it was 2.35 µM; in the test on MDBK line (setting [5]), 2.31 µM. In addition, the “ICW Screen” value at EGFR is 57.72. For the same molecule, the “ICW Re-Test” value against EGFR was 43.06.

Take `Cc1cccc(NC(c2ccc(C(F)(F)F)cc2)c2ccc3cccnc3c2O)n1` (stereo not shown) [compound 10628]: the IC50 in test [1] (setting [2]) amounted to 0.311 µM; in test [1] (setting [4]), 0.32 µM; with MDBK line (setting [3]) it was 0.689 µM; in the test on MDBK line (setting [5]), 0.76 µM. For the same molecule, the “ICW Screen” value against EGFR came to 30.02.

For the molecule `Cc1ccc(NC(c2ccccc2)c2ccc3cccnc3c2O)cc1` (stereo not shown) [compound 10664], the “MTT-72 h A431/MDBK (ratio)” value in test [1] (72 h) turned out to be 1.12. Besides, the IC50 in test [1] (setting [4]) was 1.92 µM. In addition, at EGFR, the “ICW Screen” value stood at 64.09 and the “ICW Re-Test” value came to 69.21. The IC50 with MDBK line (setting [5]) stood at 2.14 µM.

For the molecule `CCOc1cc(C(Nc2cccnc2)c2ccc3cccnc3c2O)ccc1O` (stereo not shown) [compound 10936], in test [1] (72 h), the “MTT-72 h A431/MDBK (ratio)” value turned out to be 1.05. Further, the IC50 in test [1] (setting [4]) came out at 5.43 µM; in the test on MDBK line (setting [5]), 5.68 µM. In addition, the “ICW Screen” value on EGFR is given as 37.96. On EGFR, the “ICW Re-Test” value was 57.
